Assay results as given in article doi:10.1101/2022.02.24.481826v2 (biorxiv, 2022).

Target: T1, AMPK4 (Arabidopsis thaliana, UniProt O82514)
T1 sequence (O82514 2-246): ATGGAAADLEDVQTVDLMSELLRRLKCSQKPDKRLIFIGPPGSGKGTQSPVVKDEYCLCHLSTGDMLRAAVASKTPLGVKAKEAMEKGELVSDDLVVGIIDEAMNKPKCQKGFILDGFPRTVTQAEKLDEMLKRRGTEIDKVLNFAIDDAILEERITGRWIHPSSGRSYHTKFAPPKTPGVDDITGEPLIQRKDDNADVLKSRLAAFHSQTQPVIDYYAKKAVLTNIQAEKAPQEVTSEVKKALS
Assay: coupled pyruvate kinase / lactate dehydrogenase assay, […] nm
Type: biochemical
Conditions: 1 mM AMP, 1 mM ATP

Nc1ncnc2c1ncn2[C@@H]1O[C@H](COP(=O)(O)O)[C@@H](O)[C@H]1O [AMP]
coupled pyruvate kinase / lactate dehydrogenase assay, 340 nm: Analogous data for AMPK4
